Data as given in the supplement of paper PMC10307832.

Assays:
Assay in all cases: relative viability (nuclei count vs DMSO), 5 days (fraction); higher = more cells survive
[1] = compound: CCc1cnn2c(NCc3ccc[n+]([O-])c3)cc(N3CCCC[C@H]3CCO)nc12 [Dinaciclib] + Cc1nc(NC(=O)N2CCC[C@H]2C(N)=O)sc1-c1ccnc(C(C)(C)C(F)(F)F)c1 [Alpelisib] (partner 2 µM)
Summary of the method: (§1)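 The day after seeding in 1536-well plates, lung cancer cell lines were treated by pin tool with a single drug, or with a fixed anchor-drug dose together with five library-drug doses (not always all listed) in √10 steps. After 5 days, a combined fix-and-stain solution (final 0.05% Triton X-100, 1% formaldehyde, 1 ug/ml Hoechst) was added. Nuclei counted on 4× images gave relative viability as treated counts over vehicle counts, reported as the median of duplicate plates.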

[2] = compound: CCc1cnn2c(NCc3ccc[n+]([O-])c3)cc(N3CCCC[C@H]3CCO)nc12 [Dinaciclib] + N=C(N)NC(=N)NCCc1ccccc1 [Phenformin] (partner 250 µM)
Summary of the method: as §1

[3] = compound: CCc1cnn2c(NCc3ccc[n+]([O-])c3)cc(N3CCCC[C@H]3CCO)nc12 [Dinaciclib] + Cc1nc(Nc2ncc(C(=O)Nc3c(C)cccc3Cl)s2)cc(N2CCN(CCO)CC2)n1 [Dasatinib] (partner 0.075 µM)
Summary of the method: as §1

[4] = compound: CCc1cnn2c(NCc3ccc[n+]([O-])c3)cc(N3CCCC[C@H]3CCO)nc12 [Dinaciclib] + CS(=O)(=O)CCNCc1ccc(-c2ccc3ncnc(Nc4ccc(OCc5cccc(F)c5)c(Cl)c4)c3c2)o1 [Lapatinib] (partner 2 µM)
Summary of the method: as §1

[5] = compound: CCc1cnn2c(NCc3ccc[n+]([O-])c3)cc(N3CCCC[C@H]3CCO)nc12 [Dinaciclib] + NC(=O)Nc1cc(-c2cccc(F)c2)sc1C(=O)N[C@H]1CCCNC1 [AZD7762] (partner 0.2 µM)
Summary of the method: as §1

| Cell Line | relative viability ([1]; first compound 0.009487 µM) | relative viability ([1]; first compound 0.03 µM) | relative viability ([1]; first compound 0.09487 µM) | relative viability ([1]; first compound 0.3 µM) | relative viability ([2]; first compound 0.009487 µM) | relative viability ([2]; first compound 0.03 µM) | relative viability ([2]; first compound 0.09487 µM) | relative viability ([2]; first compound 0.3 µM) | relative viability ([3]; first compound 0.009487 µM) | relative viability ([3]; first compound 0.03 µM) | relative viability ([3]; first compound 0.09487 µM) | relative viability ([3]; first compound 0.3 µM) | relative viability ([4]; first compound 0.009487 µM) | relative viability ([4]; first compound 0.03 µM) | relative viability ([4]; first compound 0.09487 µM) | relative viability ([4]; first compound 0.3 µM) | relative viability ([5]; first compound 0.009487 µM) | relative viability ([5]; first compound 0.03 µM) | relative viability ([5]; first compound 0.09487 µM) | relative viability ([5]; first compound 0.3 µM) |
| --- | --- | --- | --- | --- | --- | --- | --- | --- | --- | --- | --- | --- | --- | --- | --- | --- | --- | --- | --- | --- |
| NCI-H460 | 0.383 | 0.0074 | 0.0122 | 0.0084 | 0.296 | 0.0189 | 0.0192 | 0.0198 | 0.453 | 0.0263 | 0.0179 | 0.021 | 0.089 | 0.0117 | 0.011 | 0.0113 | 0.795 | 0.0353 | 0.0383 | 0.0328 |
| NCI-H596 | 0.517 | 0.426 | 0.105 | 0.154 | 0.875 | 0.692 | 0.438 | 0.216 | 0.675 | 0.643 | 0.232 | 0.178 | 0.943 | 0.341 | 0.187 | 0.16 | 1.09 | 0.479 | 0.262 | 0.24 |
| NCI-H647 | 0.585 | 0.055 | 0.0588 | 0.0651 | 0.302 | 0.0795 | 0.059 | 0.0723 | 0.104 | 0.0306 | 0.0319 | 0.042 | 0.31 | 0.0588 | 0.0482 | 0.0727 | 0.274 | 0.0458 | 0.0377 | 0.0491 |
| NCI-H650 | 1.21 | 0.192 | 0.165 | 0.176 | 0.407 | 0.201 | 0.159 | 0.154 | 0.36 | 0.169 | 0.154 | 0.164 | 0.566 | 0.171 | 0.0978 | 0.146 | 1.08 | 0.153 | 0.148 | 0.173 |
| NCI-H727 | 0.488 | 0.159 | 0.163 | 0.164 | 0.648 | 0.284 | 0.256 | 0.21 | 0.344 | 0.263 | 0.209 | 0.325 | 0.644 | 0.238 | 0.222 | 0.228 | 0.716 | 0.413 | 0.356 | 0.34 |
| NCI-H838 | 0.916 | 0.149 | 0.11 | 0.123 | 0.247 | 0.117 | 0.0955 | 0.104 | 0.176 | 0.173 | 0.143 | 0.138 | 0.239 | 0.106 | 0.0848 | 0.109 | 0.993 | 0.601 | 0.622 | 0.553 |
| NCI-H1355 | 0.933 | 0.233 | 0.141 | 0.159 | 0.502 | 0.319 | 0.183 | 0.184 | 0.815 | 0.419 | 0.147 | 0.159 | 0.979 | 0.681 | 0.142 | 0.138 | 1.02 | 0.869 | 0.267 | 0.127 |
| NCI-H1395 | 0.903 | 0.304 | 0.312 | 0.303 | 0.453 | 0.306 | 0.301 | 0.248 | 0.411 | 0.289 | 0.268 | 0.228 | 0.506 | 0.314 | 0.292 | 0.276 | 0.324 | 0.31 | 0.276 | 0.29 |
